Experimental data published in ChEMBL document CHEMBL3882724 (2013).

Tests used:
[1] = Half life in rat liver microsomes at 1 uM by LC-MS/MS analysis
[2] = Half life in human liver microsomes at 1 uM by LC-MS/MS analysis
[3] = target: T1, Steroid 17-alpha-hydroxylase/17,20 lyase (Homo sapiens, UniProt P05093); assay: Inhibition of CYP17 in human testicular microsomes using 17alpha-hydroxypregnenolone as substrate assessed as decrease in DHEA levels at 10 nM after 90 mins by ELISA relative to control; set-up: species or system Testis; conditions: 1.5 h
T1 sequence (P05093 whole entry): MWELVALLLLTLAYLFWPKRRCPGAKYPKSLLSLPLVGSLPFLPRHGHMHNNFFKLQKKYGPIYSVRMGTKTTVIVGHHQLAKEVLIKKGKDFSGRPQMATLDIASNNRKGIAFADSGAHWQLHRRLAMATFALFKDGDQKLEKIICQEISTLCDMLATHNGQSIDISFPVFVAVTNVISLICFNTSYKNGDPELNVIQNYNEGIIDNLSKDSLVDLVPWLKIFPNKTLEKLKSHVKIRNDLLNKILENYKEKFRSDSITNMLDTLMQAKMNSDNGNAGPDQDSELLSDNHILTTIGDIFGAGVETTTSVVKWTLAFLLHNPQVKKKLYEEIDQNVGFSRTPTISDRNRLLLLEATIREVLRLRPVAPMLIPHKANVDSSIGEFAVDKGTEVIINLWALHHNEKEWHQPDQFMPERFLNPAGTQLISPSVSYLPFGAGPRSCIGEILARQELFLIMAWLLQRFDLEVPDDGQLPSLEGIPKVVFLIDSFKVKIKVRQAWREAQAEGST

[4] = target: T1, Steroid 17-alpha-hydroxylase/17,20 lyase; assay: Inhibition of CYP17 in human testicular microsomes using 17alpha-hydroxypregnenolone as substrate assessed as decrease in DHEA levels after 90 mins by ELISA; set-up: species or system Testis
[5] = target: T2, CYP21 (steroid 21-hydroxylase) (Homo sapiens, UniProt P08686); assay: Inhibition of human CYP21 transfected in HEK293 cells assessed as decrease in conversion of progesterone to 11-deoxycorticosterone preincubated for 5 hrs followed by progesterone addition measured after 20 hrs by ELISA; format: cell-based; set-up: concentration or dose not given beside the values; conditions: HEK293 cells transfected with human CYP21, probe progesterone
T2 sequence (P08686 whole entry): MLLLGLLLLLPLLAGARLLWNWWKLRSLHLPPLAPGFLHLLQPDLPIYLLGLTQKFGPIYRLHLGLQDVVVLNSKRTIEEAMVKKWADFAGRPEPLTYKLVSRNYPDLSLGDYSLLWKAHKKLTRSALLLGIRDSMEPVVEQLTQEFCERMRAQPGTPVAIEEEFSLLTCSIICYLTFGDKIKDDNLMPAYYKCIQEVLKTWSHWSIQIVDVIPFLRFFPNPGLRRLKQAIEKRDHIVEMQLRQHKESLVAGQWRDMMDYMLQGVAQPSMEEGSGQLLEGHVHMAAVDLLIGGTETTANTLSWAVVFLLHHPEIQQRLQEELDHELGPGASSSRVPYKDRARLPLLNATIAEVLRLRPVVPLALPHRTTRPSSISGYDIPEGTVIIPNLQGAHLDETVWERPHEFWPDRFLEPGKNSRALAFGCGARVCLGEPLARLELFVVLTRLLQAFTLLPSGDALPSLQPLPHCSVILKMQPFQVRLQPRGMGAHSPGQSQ

[6] = target: T1, Steroid 17-alpha-hydroxylase/17,20 lyase; assay: Inhibition of CYP17 in human H295R cells assessed as decrease in testosterone levels after 24 hrs by ELISA; format: cell-based

half-life at 1 µM [1] [min] | half-life at 1 µM [2] [min] | inhibition at 0.01 µM [3] [%] | IC50 [4] [nM] | Structure (SMILES) | inhibition at 20 h [5] [%] | IC50 [6] [nM]
10 to 60 | 10 to 60 | 50 to 80 | – | CCCOc1cncc(C2=CC[C@H]3[C@@H]4CCN5CCCCC[C@]5(C)[C@H]4CC[C@]23C)c1 | – | –
– | 1 to 50 | ≥ 80 | ≤ 11 | C[C@]12CCC(=O)CCC1=CC[C@@H]1[C@@H]2CC[C@]2(C)C(n3ccnc3)=CC[C@@H]12 | – | –
10 to 60 | ≥ 50 | ≥ 80 | ≤ 11 | C[C@]12CCNC(=O)C[C@@H]1CC[C@@H]1[C@@H]2CC[C@]2(C)C(n3ccnc3)=CC[C@@H]12 | – | –
1 to 10 | 1 to 10 | 50 to 80 | ≤ 11 | Cc1cncc(C2=CC[C@H]3[C@@H]4CCN5C(=O)CCCC[C@]5(C)[C@H]4CC[C@]23C)c1 | – | –
1 to 10 | 1 to 10 | 1 to 50 | – | Cc1cncc(C2=CC[C@H]3[C@@H]4CC[C@H]5COC(=O)CC[C@]5(C)[C@H]4CC[C@]23C)c1 | – | –
1 to 10 | 1 to 10 | 50 to 80 | ≤ 11 | CN1C(=O)COC[C@@]2(C)C1CC[C@@H]1[C@@H]2CC[C@]2(C)C(c3cccnc3)=CC[C@@H]12 (stereo partly specified) | – | –
– | – | – | – | CN(C)CC(=O)O[C@H]1CC[C@@]2(C)C(=CC[C@H]3C4=CC=C(c5cccnc5)[C@@]4(C)CC[C@@H]32)C1 | ≥ 50 | 15 to 100
10 to 60 | ≥ 50 | ≥ 80 | ≤ 11 | C[C@]12CCNC(=O)C=C1CC[C@@H]1[C@@H]2CC[C@]2(C)C(n3ccnc3)CC[C@@H]12 (stereo partly specified) | – | –
10 to 60 | 10 to 60 | 50 to 80 | ≤ 11 | C[C@]12CCCCC[C@@H]1CC[C@@H]1[C@@H]2CC[C@]2(C)C(n3ccnc3)=CC[C@@H]12 | – | –
10 to 60 | 10 to 60 | 50 to 80 | ≤ 11 | Cc1cn(C2=CC[C@H]3[C@@H]4CCC5=CC(=O)NCC[C@]5(C)[C@H]4CC[C@]23C)cn1 | – | –
1 to 10 | 1 to 10 | ≥ 80 | ≤ 11 | C[C@]12CCOCC[C@@H]1CC[C@@H]1[C@@H]2CC[C@]2(C)C(c3cccnc3)=CC[C@@H]12 | – | –
1 to 10 | 1 to 10 | ≥ 80 | – | C[C@]12CCNC(=O)C=C1CC[C@@H]1[C@@H]2CC[C@]2(C)C(n3ncnn3)=CC[C@@H]12 | – | –
– | – | – | – | C[C@]12CC[C@H]3[C@@H](CC=C4C[C@@H](O)CC[C@@]43C)C1=CC=C2c1cncc(C(F)F)c1 | < 10 | 15 to 100
1 to 10 | 1 to 10 | 50 to 80 | ≤ 11 | Cc1cncc(C2=CC[C@H]3[C@@H]4CC[C@H]5COCCC[C@]5(C)[C@H]4CC[C@]23C)c1 | – | –
1 to 10 | 1 to 10 | 1 to 50 | – | CCc1cncc(C2=CC[C@H]3[C@@H]4CCN5CCCCC[C@]5(C)[C@H]4CC[C@]23C)c1 | – | –
1 to 10 | 1 to 10 | ≥ 80 | ≤ 11 | COc1cncc(C2=CC[C@H]3[C@@H]4CCN5C(=O)CCCC[C@]5(C)[C@H]4CC[C@]23C)c1 | – | –
1 to 10 | ≥ 50 | ≥ 80 | ≤ 11 | C[C@]12CC(=O)C[C@@H]1CC[C@@H]1[C@@H]2CC[C@]2(C)C(n3ccnc3)=CC[C@@H]12 | – | –
1 to 10 | 1 to 10 | ≥ 80 | ≤ 11 | CCc1cncc(C2=CC[C@H]3[C@@H]4CCN5C(=O)CCCC[C@]5(C)[C@H]4CC[C@]23C)c1 | – | –
1 to 10 | 1 to 10 | 50 to 80 | ≤ 11 | COc1cncc(C2=CC[C@H]3[C@@H]4CC[C@H]5CCOCC[C@]5(C)[C@H]4CC[C@]23C)c1 | – | –
1 to 10 | 1 to 10 | 50 to 80 | ≤ 11 | CCOc1cncc(C2=CC[C@H]3[C@@H]4CC[C@H]5COCCC[C@]5(C)[C@H]4CC[C@]23C)c1 | – | –
1 to 10 | 1 to 10 | 50 to 80 | ≤ 11 | COc1cncc(C2=CC[C@H]3[C@@H]4CC[C@H]5COCCC[C@]5(C)[C@H]4CC[C@]23C)c1 | – | –
1 to 10 | 1 to 10 | ≥ 80 | ≤ 11 | C[C@]12CCCOCC1CCC1C2CC[C@]2(C)C(c3cccnc3)=CC[C@@H]12 (single isomer, unassigned) | – | –

Structure (SMILES) | half-life at 1 µM [1] [min] | half-life at 1 µM [2] [min] | inhibition at 0.01 µM [3] [%] | IC50 [4] [nM] | inhibition at 20 h [5] [%] | IC50 [6] [nM]
Cc1ccncc1C1=CC=C2[C@@H]3CC=C4C[C@@H](O)CC[C@]4(C)[C@H]3CC[C@]12C | – | 1 to 50 | – | – | ≥ 50 | 15 to 100
C[C@]12CCCCC1C(O)C[C@@H]1[C@@H]2CC[C@]2(C)C(n3ccnc3)=CC[C@@H]12 (stereo partly specified) | – | 1 to 50 | 50 to 80 | ≤ 11 | – | –
C[C@]12CC[C@H]3[C@@H](CCC45CC4C(O)CC[C@]35C)[C@@H]1CC=C2c1cccnc1 (stereo partly specified) | – | – | – | ≤ 11 | ≥ 50 | ≤ 15
Cc1cncc(C2=CC[C@H]3[C@@H]4CC(=O)C5CCCC[C@]5(C)[C@H]4CC[C@]23C)c1 (stereo partly specified) | 1 to 10 | 1 to 10 | – | ≤ 11 | – | –
CC1C(O)CC[C@@]2(C)C1CC[C@@H]1[C@@H]2CC[C@]2(C)C(c3cccnc3)=CC[C@@H]12 (stereo partly specified) | – | – | – | ≤ 11 | 10 to 50 | ≤ 15
C[C@@]1(O)CC[C@@]2(C)C(CC[C@@H]3[C@@H]2CC[C@]2(C)C(c4cncc(F)c4)=CC[C@@H]32)C1 (stereo partly specified) | – | 1 to 50 | – | ≤ 11 | – | ≤ 15
Cc1cncc(C2=CC[C@H]3[C@@H]4CC(O)C5CCCC[C@]5(C)[C@H]4CC[C@]23C)c1 (stereo partly specified) | 1 to 10 | 1 to 10 | – | ≤ 11 | – | –
C[C@]12CC[C@H]3[C@@H](CC=C4C[C@@H](O)CC[C@@]43C)C1=CC=C2n1ccnc1 | – | ≥ 50 | ≥ 80 | ≤ 11 | – | –
C[C@]12CCC(F)CC1=CC[C@@H]1[C@@H]2CC[C@]2(C)C(c3cncc(F)c3)=CC[C@@H]12 (stereo partly specified) | – | ≥ 50 | – | ≤ 11 | – | ≤ 15
CC(=O)N[C@@H]1CC[C@@]2(C)C(=CC[C@H]3C4=CC=C(c5cccnc5)[C@@]4(C)CC[C@@H]32)C1 | – | 1 to 50 | – | – | ≥ 50 | ≤ 15
C[C@]12CC[C@H]3[C@@H](CC[C@H]4C[C@@H](O)CC[C@@]43C)C1=CC=C2c1cccnc1 | – | ≥ 50 | ≥ 80 | ≤ 11 | – | –
C[C@]12CCCCC1=CC[C@@H]1[C@@H]2CC[C@]2(C)C(c3cccnc3)=CC[C@@H]12 | 1 to 10 | 1 to 10 | 50 to 80 | – | – | –
C[C@]12CC[C@H]3[C@@H](CC[C@H]4C[C@@H](O)CC[C@@]43C)C1=CC=C2n1ccnn1 | 1 to 10 | 1 to 10 | – | – | – | –
CC(C)C(=O)N[C@H]1CC[C@@]2(C)C(CC[C@@H]3[C@@H]2CC[C@]2(C)C(c4cccnc4)=CC[C@@H]32)C1 (stereo partly specified) | – | 1 to 50 | – | – | ≥ 50 | ≤ 15
COc1cncc(C2=CC[C@H]3[C@@H]4CC(=O)C5CCCC[C@]5(C)[C@H]4CC[C@]23C)c1 (stereo partly specified) | 1 to 10 | 1 to 10 | – | ≤ 11 | – | –
CC1=C2CC[C@@H]3[C@H](CC[C@]4(C)C(c5cccnc5)=CC[C@@H]34)[C@@]2(C)CCC1=O | – | – | – | ≤ 11 | ≥ 50 | ≤ 15
